Measurements published in US11142588B2, “Polypeptides which bind C-X-C chemokine receptor type 4 (CXCR4) and methods of treating or reducing the risk of fibrosis and cancer” (AdAlta Limited, priority 2015, dated 2021).

B1: AM4-272-6H: AM4-272 with 6 His tag, containing the N-terminal sequence EAEA (protein)
chain: EAEALQVDIVPSQGEISVGESKFFLCQVAGSYSDYRISWFSPNGEKLTPNQQRISVVWNDDSSSTLTIYNANIDDAGIYKCVVYRIGGYRHRYLVLGEATVNVKIFQ
modifications: left off: small tags and cut ends

Key:
Ramos tumor cells [1] = test: MTT cell proliferation assay; type: cell-based, human; details: 24 to 72 hrs, AM3-114 at 10 μM
Method: The ability of the CXCR4 molecules or polypeptides disclosed herein (i-bodies) to inhibit proliferation of Ramos tumor cells, a human Burkitt's lymphoma cell line expressing CXCR4 mentioned above, in vitro was examined in a MTT cell proliferation assay as described in (Lapteva (2005) Cancer Gene Therapy 12, 84-89). Cells were grown in a 96-well tissue culture plate and treated with a vehicle or the anti-CXCR4 body. The cells were then incubated with the MTT solution for approximately 4 hours. After this incubation period, a water-insoluble formazan dye is formed. After solubilization, the formazan dye is quantitated using a scanning multi-well spectrophotometer (ELISA reader).

Ramos tumor cells [2] = test: Apoptosis assay (annexin V / propidium iodide flow cytometry); type: cell-based, human; details: annexin V and propidium iodide double positive, 24 or 72 hours
Method: The ability of an i-body of the invention to induce apoptosis in Ramos tumor cells (a human Burkitt's lymphoma cell line) was examined in an apoptosis assay according to the methods as described in Mishra M et al (2011) J Cell Mol Med 15(11):2462-77. I-bodies were incubated with Ramos cells and examined by flow cytometry after 24 or 72 hours. The cells were stained for annexin V and propidium iodide which are classic markers for apoptosis. Cells which were double positive were assessed to have become apoptotic.

[3] = test system: HIV entry into CXCR4 expressing T-cells; test: In vitro HIV inhibition assay; type: cell-based; details: Human immunodeficiency virus 1, T-cell
[4] = Bleomycin mouse model of pulmonary fibrosis; type: in vivo
Text: The optimal dose of Bleomycin is 2 U/mouse and the optimal time for assessing fibrocyte recruitment was confirmed at day 4. At days 4 bronchoalvelolar lavage (BAL) fluids were collected for analysis of SDF-1 concentration. One half of the lung tissue was used to make single cell suspensions of the lung and the cells used for flow cytometry and assayed for CD45+, CXCR4+ and Collagen1+ (fibrocytes). The other half of the lung tissue was Sircol stained for the presence of collagen 1 and RNA will be tested for Col-1, Col-3 and SDF-1.
SDF-1, fibrocytes and collagen deposition were monitored at Day 4. Groups were dosed with the i-body just prior to administration with Bleomycin. One half of the lung tissue was minced and washed in PBS and used to make single cell suspensions of the lung with Collagenase A and dispase treatment. The cells were then used for flow cytometry and assayed for CD45+, CXCR4+ and Collagen1+ fibrocytes. […]

[5] = test system: normal and IPF lung fibroblasts; test: Wound healing invasion assay of lung fibroblasts; type: cell-based, human
Method: To determine the role of CXCR4 and CXCL12 in fibroblast invasion, normal and IPF lung fibroblasts were utilized in a wound healing invasion assay. ImageLock 96 well plates (Essen Bioscience) were coated with 50 μg/ml of Basement membrane extract (BME; Trevigen) for one hour at room temperature. Normal, and fibroblasts generated from lung biopsies of idiopathic pulmonary fibrosis (IPF) patients showing slow progression or rapid progression of the disease were plated (36,000 cells per well) on the BME-coated plates and incubated overnight. […] The BME was allowed to polymerize by incubating the plate at 37° C. for 15 minutes. The plates were then inserted into an IncuCyte Zoom imaging system and images were acquired every 2 hours for approximately 50 hours. Invasion was quantified using IncuCyte software (Essen Bioscience).

CCL2 and CCL5 protein = test: CCL2, CCL5, CXCL12 ELISA of fibroblast conditioned supernatants; type: cell-based, human; details: 48 hours
Text: Various reports indicate that CXCR4 signals in conjunction with other chemokine receptors, including CCR2.

[6] = cited from earlier work
CCRF-CEM cells = test: Immunohistochemistry staining of tumours in spleen and liver of SCID/bg mice; details: 130 μg/ml
Method: Tissues were fixed in 10% neutral buffered formalin overnight and subsequently transferred into tissue cassettes and placed in 70% ethanol. The tissues were then paraffin embedded. Slides containing 4 μm sections were deparaffinized and hydrated by incubating them in two changes of xylene for five min each, followed by two changes of 100% ethanol for 3 min each, 70% ethanol for 2 min, 50% ethanol for 2 min, and distilled water for 5 min. Antigen retrieval was performed by incubating the slides in 10 mM Citric acid solution (pH 6.0) in an 80° C. oven overnight. The slides were subsequently washed in PBS and permeabilized in 10% methanol containing 0.4% H2O2 for 30 min. […] All slides were subsequently stained with biotinylated anti-His tag antibodies (Miltenyi Biotech) and developed using an HRP-DAB cell and tissue staining kit according to the manufacturer's instructions (R&D systems).

Row | Molecule | growth of RAMOS cells (Ramos tumor cells [1]) | induction of apoptosis in Ramos cells (Ramos tumor cells [2]) | IC50 [3] | recruitment of fibrocytes into the lungs ([4]; day 4, dose not given) | collagen content of the lung (Sircol) ([4]; positive controls, dose not stated) | invasion / motility of normal, slow and rapid IPF lung fibroblast lines ([5]; AMD3100 12 μM, 21H5 130 μg/ml) | CCL2 protein in IPF fibroblast conditioned supernatants (CCL2 and CCL5 protein) | development of pulmonary fibrosis in irradiated mice ([6]; Shu et al 2013) | bleomycin induced pulmonary fibrosis ([6]; Xu et al 2007) | staining of CCRF-CEM cells in spleen and liver (CCRF-CEM cells) | invasion of rapid-IPF (fast progressor) lung fibroblasts ([5]; 130 μg/ml) | invasion of slow-IPF lung fibroblasts ([5]; 130 μg/ml) | CCL5 levels in IPF lung fibroblasts (CCL2 and CCL5 protein)
1 | c1cc(CN2CCCNCCNCCCNCC2)ccc1CN1CCCNCCNCCCNCC1 [AMD3100, reference compound] | able to inhibit cell growth | does not induce significant apoptosis | 50 nM | able to block recruitment of fibrocytes | reduction in collagen | had no effect | markedly increased | did not significantly suppress | effectively alleviate bleomycin induced pulmonary fibrosis | – | – | – | –
2 | B1 | – | strongly induce apoptosis | – | – | – | – | markedly increased | – | – | stained CCRF-CEM cells | two out three | inhibited invasion | increased CCL5 levels in some IPF lung fibroblasts
